In US8765940B2 (priority 2009, dated 2014):

Biological target: PI3Kδ (Homo sapiens (Human), UniProt O00329)
Assay type: biochemical
Settings: PI3Kδ Alphascreen assay

Sequence of PI3Kδ (O00329 whole entry): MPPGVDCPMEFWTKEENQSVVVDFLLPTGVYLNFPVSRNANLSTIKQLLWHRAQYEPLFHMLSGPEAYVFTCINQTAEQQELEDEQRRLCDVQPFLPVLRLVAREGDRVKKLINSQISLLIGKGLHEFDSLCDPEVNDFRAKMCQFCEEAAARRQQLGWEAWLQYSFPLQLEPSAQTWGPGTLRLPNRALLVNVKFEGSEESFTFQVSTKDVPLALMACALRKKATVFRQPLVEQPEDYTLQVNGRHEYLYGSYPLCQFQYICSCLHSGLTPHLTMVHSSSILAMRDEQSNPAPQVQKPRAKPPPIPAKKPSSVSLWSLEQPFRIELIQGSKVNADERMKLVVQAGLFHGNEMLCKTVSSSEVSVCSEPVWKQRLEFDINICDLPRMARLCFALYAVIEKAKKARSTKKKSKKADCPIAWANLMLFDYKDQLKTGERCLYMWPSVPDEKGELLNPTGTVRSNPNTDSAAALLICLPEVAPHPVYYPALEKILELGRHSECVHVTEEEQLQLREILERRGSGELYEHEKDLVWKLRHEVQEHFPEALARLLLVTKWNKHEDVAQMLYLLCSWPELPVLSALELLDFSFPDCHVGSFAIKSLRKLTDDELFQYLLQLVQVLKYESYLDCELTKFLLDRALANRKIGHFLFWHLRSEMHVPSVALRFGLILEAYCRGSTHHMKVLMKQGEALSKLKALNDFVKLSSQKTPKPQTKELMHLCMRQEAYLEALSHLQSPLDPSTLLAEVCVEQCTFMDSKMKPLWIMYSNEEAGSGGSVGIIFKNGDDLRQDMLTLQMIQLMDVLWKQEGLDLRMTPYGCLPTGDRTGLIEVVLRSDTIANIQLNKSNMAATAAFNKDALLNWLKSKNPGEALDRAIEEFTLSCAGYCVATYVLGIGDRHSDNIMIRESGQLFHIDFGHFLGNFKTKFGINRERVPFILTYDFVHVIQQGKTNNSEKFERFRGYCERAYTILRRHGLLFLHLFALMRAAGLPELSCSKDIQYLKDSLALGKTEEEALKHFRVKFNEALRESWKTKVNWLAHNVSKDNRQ
Sequence of PI3Kδ (P27986 whole entry partner): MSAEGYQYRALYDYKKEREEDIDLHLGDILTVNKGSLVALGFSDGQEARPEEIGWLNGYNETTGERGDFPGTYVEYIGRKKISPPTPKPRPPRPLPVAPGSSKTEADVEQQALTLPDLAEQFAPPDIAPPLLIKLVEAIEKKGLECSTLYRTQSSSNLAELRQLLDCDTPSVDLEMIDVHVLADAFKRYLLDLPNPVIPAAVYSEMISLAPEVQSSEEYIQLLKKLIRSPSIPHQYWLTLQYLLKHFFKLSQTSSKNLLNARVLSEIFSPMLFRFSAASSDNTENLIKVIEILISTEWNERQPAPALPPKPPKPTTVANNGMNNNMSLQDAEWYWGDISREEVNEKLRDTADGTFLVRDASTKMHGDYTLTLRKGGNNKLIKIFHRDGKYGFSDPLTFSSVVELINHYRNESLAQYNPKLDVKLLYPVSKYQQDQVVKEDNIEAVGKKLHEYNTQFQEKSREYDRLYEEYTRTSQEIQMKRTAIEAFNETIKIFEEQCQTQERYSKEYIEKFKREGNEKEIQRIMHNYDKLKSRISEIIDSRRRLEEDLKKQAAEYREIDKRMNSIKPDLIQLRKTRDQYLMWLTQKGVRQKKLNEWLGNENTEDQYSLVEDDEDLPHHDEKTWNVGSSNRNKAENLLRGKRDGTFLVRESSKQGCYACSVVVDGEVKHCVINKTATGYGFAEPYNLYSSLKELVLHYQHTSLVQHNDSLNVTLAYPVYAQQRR

Cc1nc2ccccc2c(N2CC3(CCOCC3)c3ccc(N4CCOCC4)cc32)c1C [1-(2,3-dimethyl-4-quinolinyl)-6-(4-morpholinyl)-1,2,2′,3′,5′,6′-hexahydrospiro[indole-3,4′-pyran]]
Ki: 450 nM

Cc1c(-c2ccccc2)nc2ccccc2c1N1CC2(CCOCC2)c2ccc(N3CCOCC3)cc21 [1-(3-methyl-2-phenyl-4-quinolinyl)-6-(4-morpholinyl)-1,2,2′,3′,5′,6′-hexahydrospiro[indole-3,4′-pyran]]
Ki: 91.3 nM

Cc1c(N2CCCC2=O)nc2cc(F)cc(F)c2c1N1CC(C)(C)c2ncc(N3CCOCC3)cc21 [1-(4-(3,3-dimethyl-6-(4-morpholinyl)-2,3-dihydro-1H-pyrrolo[3,2-b]pyridin-1-yl)-5,7-difluoro-3-methyl-2-quinolinyl)-2-pyrrolidinone]
Ki: 1.54 nM

Cc1c(-c2ccccn2)nc2cc(F)cc(F)c2c1N1CC2(CCOCC2)c2ccc(N3CCOCC3)cc21 [1-(5,7-difluoro-3-methyl-2-(2-pyridinyl)-4-quinolinyl)-6-(4-morpholinyl)-1,2,2′,3′,5′,6′-hexahydrospiro[indole-3,4′-pyran]]
Ki: 21.1 nM

Cc1c(-n2ccccc2=O)nc2cc(F)cc(F)c2c1N1CC2(CCOCC2)c2ccc(N3CCOCC3)cc21 [1-(5,7-difluoro-3-methyl-4-(6-(4-morpholinyl)-2′,3′,5′,6′-tetrahydrospiro[indole-3,4′-pyran]-1(2H)-yl)-2-quinolinyl)-2(1H)-pyridinone]
Ki: 4.64 nM

Cc1c(N2CCC2=O)nc2cc(F)cc(F)c2c1N1CC2(CCOCC2)c2ncc(N3CCOCC3)cc21 [1-(5,7-difluoro-3-methyl-4-(6′-(4-morpholinyl)-2,3,5,6-tetrahydrospiro[pyran-4,3′-pyrrolo[3,2-b]pyridin]-1′(2′H)-yl)-2-quinolinyl)-2-azetidinone]
Ki: 2.3 nM

Cc1c(N2CCCCC2=O)nc2cc(F)cc(F)c2c1N1CC2(CCOCC2)c2ncc(N3CCOCC3)cc21 [1-(5,7-difluoro-3-methyl-4-(6′-(4-morpholinyl)-2,3,5,6-tetrahydrospiro[pyran-4,3′-pyrrolo[3,2-b]pyridin]-1′(2′H)-yl)-2-quinolinyl)-2-piperidinone]
Ki: 5.51 nM

Cc1c(N2CCCC2=O)nc2cc(F)cc(F)c2c1N1CC2(CCOCC2)c2ncc(N3CCOCC3)cc21 [1-(5,7-difluoro-3-methyl-4-(6′-(4-morpholinyl)-2,3,5,6-tetrahydrospiro[pyran-4,3′-pyrrolo[3,2-b]pyridin]-1′(2′H)-yl)-2-quinolinyl)-2-pyrrolidinone]
Ki: 2.36 nM

Cc1c(N2CC(C)(C)CC2=O)nc2cc(F)cc(F)c2c1N1CC2(CCOCC2)c2ncc(N3CCOCC3)cc21 [1-(5,7-difluoro-3-methyl-4-(6′-(4-morpholinyl)-2,3,5,6-tetrahydrospiro[pyran-4,3′-pyrrolo[3,2-b]pyridin]-1′(2′H)-yl)-2-quinolinyl)-4,4-dimethyl-2-pyrrolidinone]
Ki: 2.24 nM

Cc1c(N2CC(C)(C)CCC2=O)nc2cc(F)cc(F)c2c1N1CC2(CCOCC2)c2ncc(N3CCOCC3)cc21 [1-(5,7-difluoro-3-methyl-4-(6′-(4-morpholinyl)-2,3,5,6-tetrahydrospiro[pyran-4,3′-pyrrolo[3,2-b]pyridin]-1′(2′H)-yl)-2-quinolinyl)-5,5-dimethyl-2-piperidinone]
Ki: 2.7 nM

Cc1c(-c2ccccn2)nc2cccc(F)c2c1N1CCS(=O)(=O)c2ncc(N3CCOCC3)cc21 [1-(5-fluoro-3-methyl-2-(2-pyridinyl)-4-quinolinyl)-7-(4-morpholinyl)-2,3-dihydro-1H-pyrido[2,3-b][1,4]thiazine 4,4-dioxide]
Ki: 12.9 nM

Cc1nc2ccc(Cl)cc2c(-n2ccc3c(O)cc(-c4cn[nH]c4)cc32)c1C [1-(6-chloro-2,3-dimethyl-4-quinolinyl)-6-(1H-pyrazol-4-yl)-1H-indol-4-ol]
Ki: 4110 nM

Cc1nc2ccc(Cl)cc2c(-n2cc(C#N)c3ccc(-c4cn[nH]c4)cc32)c1C [1-(6-chloro-2,3-dimethyl-4-quinolinyl)-6-(1H-pyrazol-4-yl)-1H-indole-3-carbonitrile]
Ki: 2110 nM

Cc1nc2ccc(Cl)cc2c(-n2ccc3c(C#N)cc(-c4cn[nH]c4)cc32)c1C [1-(6-chloro-2,3-dimethyl-4-quinolinyl)-6-(1H-pyrazol-4-yl)-1H-indole-4-carbonitrile]
Ki: 1080 nM

Cc1nc2ccc(Cl)cc2c(N2CC3(CCOCC3)c3ccc(N4CCOCC4)cc32)c1C [1-(6-chloro-2,3-dimethyl-4-quinolinyl)-6-(4-morpholinyl)-1,2,2′,3′,5′,6′-hexahydrospiro[indole-3,4′-pyran]]
Ki: 73 nM

Cc1nc2ccc(Cl)cc2c(-n2ccc3c(C#N)cc(N4CCOCC4)cc32)c1C [1-(6-chloro-2,3-dimethyl-4-quinolinyl)-6-(4-morpholinyl)-1H-indole-4-carbonitrile]
Ki: 153 nM

Cc1nc2ccc(Cl)cc2c(-n2ccc3c(C#N)cc(-c4ccncc4)cc32)c1C [1-(6-chloro-2,3-dimethyl-4-quinolinyl)-6-(4-pyridinyl)-1H-indole-4-carbonitrile]
Ki: 1480 nM

COc1cc2nc(C)c(C)c(N3CC4(CCOCC4)c4ccc(C#N)cc43)c2cc1Cl [1-(6-chloro-7-methoxy-2,3-dimethyl-4-quinolinyl)-1,2,2′,3′,5′,6′-hexahydrospiro[indole-3,4′-pyran]-6-carbonitrile]
Ki: 7500 nM

Cc1c(-c2ccccc2F)nc2cc(Cl)ccc2c1N1CC2(CCOCC2)c2ccc(N3CCOCC3)cc21 [1-(7-chloro-2-(2-fluorophenyl)-3-methyl-4-quinolinyl)-6-(4-morpholinyl)-1,2,2′,3′,5′,6′-hexahydrospiro[indole-3,4′-pyran]]
Ki: 570 nM

Cc1c(-c2ccccc2F)nc2cc(F)ccc2c1N1CC2(CCOCC2)c2ccc(N3CCOCC3)cc21 [1-(7-fluoro-2-(2-fluorophenyl)-3-methyl-4-quinolinyl)-6-(4-morpholinyl)-1,2,2′,3′,5′,6′-hexahydrospiro[indole-3,4′-pyran]]
Ki: 25.4 nM

COc1cccc(-c2nc3cc(F)ccc3c(N3CC4(CCOCC4)c4ccc(N5CCOCC5)cc43)c2C)n1 [1-(7-fluoro-2-(6-methoxy-2-pyridinyl)-3-methyl-4-quinolinyl)-6-(4-morpholinyl)-1,2,2′,3′,5′,6′-hexahydrospiro[indole-3,4′-pyran]]
Ki: 68.8 nM

Cc1c(-c2ccccc2S(C)(=O)=O)nc2cc(F)ccc2c1N1CC2(CCOCC2)c2ccc(N3CCOCC3)cc21 [1-(7-fluoro-3-methyl-2-(2-(methylsulfonyl)phenyl)-4-quinolinyl)-6-(4-morpholinyl)-1,2,2′,3′,5′,6′-hexahydrospiro[indole-3,4′-pyran]]
Ki: 10.2 nM

Cc1ncccc1-c1nc2cc(F)ccc2c(N2CC3(CCOCC3)c3ccc(N4CCOCC4)cc32)c1C [1-(7-fluoro-3-methyl-2-(2-methyl-3-pyridinyl)-4-quinolinyl)-6-(4-morpholinyl)-1,2,2′,3′,5′,6′-hexahydrospiro[indole-3,4′-pyran]]
Ki: 14.5 nM

Cc1c(-c2ccccn2)nc2cc(F)ccc2c1N1CC(C)(C)c2nc(C#N)c(N3CCOCC3)cc21 [1-(7-fluoro-3-methyl-2-(2-pyridinyl)-4-quinolinyl)-3,3-dimethyl-6-(4-morpholinyl)-2,3-dihydro-1H-pyrrolo[3,2-b]pyridine-5-carbonitrile]
Ki: 49.5 nM

Cc1c(-c2ccccn2)nc2cc(F)ccc2c1N1CC2(CCOCC2)c2ccc(N3CCOCC3)cc21 [1-(7-fluoro-3-methyl-2-(2-pyridinyl)-4-quinolinyl)-6-(4-morpholinyl)-1,2,2′,3′,5′,6′-hexahydrospiro[indole-3,4′-pyran]]
Ki: 18.2 nM

Cc1c(-c2ccccn2)nc2cc(F)ccc2c1N1CC2(CCS(=O)(=O)CC2)c2ccc(N3CCOCC3)cc21 [1-(7-fluoro-3-methyl-2-(2-pyridinyl)-4-quinolinyl)-6-(4-morpholinyl)-1,2,2′,3′,5′,6′-hexahydrospiro[indole-3,4′-thiopyran]-1′,1′-dioxide]
Ki: 64.4 nM

Cc1c(-c2ccccn2)nc2cc(F)ccc2c1N1CC2(CS(=O)(=O)C2)c2ccc(N3CCOCC3)cc21 [1-(7-fluoro-3-methyl-2-(2-pyridinyl)-4-quinolinyl)-6-(4-morpholinyl)-1,2-dihydrospiro[indole-3,3′-thietane] 1′,1′-dioxide]
Ki: 80.5 nM

Cc1c(-c2cccnc2)nc2cc(F)ccc2c1N1CC2(CCOCC2)c2ccc(N3CCOCC3)cc21 [1-(7-fluoro-3-methyl-2-(3-pyridinyl)-4-quinolinyl)-6-(4-morpholinyl)-1,2,2′,3′,5′,6′-hexahydrospiro[indole-3,4′-pyran]]
Ki: 47.5 nM

Cc1c(N2CCCCC2=O)nc2cc(F)ccc2c1N1CC2(CCOCC2)c2ncc(N3CCOCC3)cc21 [1-(7-fluoro-3-methyl-4-(6′-(4-morpholinyl)-2,3,5,6-tetrahydrospiro[pyran-4,3′-pyrrolo[3,2-b]pyridin]-1′(2′H)-yl)-2-quinolinyl)-2-piperidinone]
Ki: 1.62 nM

Cc1c(N2CCOC(C)(C)C2)nc2cc(F)cc(F)c2c1N1CC2(CCOCC2)c2ncc(N3CCOCC3)cc21 [1′-(2-(2,2-dimethyl-4-morpholinyl)-5,7-difluoro-3-methyl-4-quinolinyl)-6′-(4-morpholinyl)-1′,2,2′,3,5,6-hexahydrospiro[pyran-4,3′-pyrrolo[3,2-b]pyridine]]
Ki: 5.4 nM

Cc1c(-c2cc(F)cc(F)c2)nc2cnccc2c1N1CC2(CCOCC2)c2ncc(N3CCOCC3)cc21 [1′-(2-(3,5-difluorophenyl)-3-methyl-1,7-naphthyridin-4-yl)-6′-(4-morpholinyl)-1′,2,2′,3,5,6-hexahydrospiro[pyran-4,3′-pyrrolo[3,2-b]pyridine]]
Ki: 13.4 nM

Cc1c(-c2cc(F)cc(F)c2)nc2ncccc2c1N1CC2(CCOCC2)c2ncc(N3CCOCC3)cc21 [1′-(2-(3,5-difluorophenyl)-3-methyl-1,8-naphthyridin-4-yl)-6′-(4-morpholinyl)-1′,2,2′,3,5,6-hexahydrospiro[pyran-4,3′-pyrrolo[3,2-b]pyridine]]
Ki: 28.2 nM

Cc1cc(C)cc(-c2nc3cc(F)ccc3c(N3CC4(CCOCC4)c4ncc(N5CCOCC5)cc43)c2C)c1 [1′-(2-(3,5-dimethylphenyl)-7-fluoro-3-methyl-4-quinolinyl)-6′-(4-morpholinyl)-1′,2,2′,3,5,6-hexahydrospiro[pyran-4,3′-pyrrolo[3,2-b]pyridine]]
Ki: 12.1 nM
